Test results published in patent US20230056935A1, “Compound, Antimicrobial Deodorant Composition Comprising Same, and Method for Producing Same” (LG Chem, Ltd., priority 2020, published 2023).

How the values were obtained:
[1] = Deodorizing property evaluation (SPME, GC/MS peak area); settings: total 80 mg
Procedure: To a test solution including the compound in 1 phr to 20 phr with respect to a total weight of 80 mg of a super absorbent polymer and the compound, 20 mL of a malodorous solution is introduced, isovaleraldehyde is adsorbed using a solid-phase microextraction method, and a GC/MS peak area of the adsorbed isovaleraldehyde is analyzed through a GC/MS analysis. For a control solution prepared in the same manner except that the compound is not introduced in the test solution, a GC/MS peak area of isovaleraldehyde is analyzed in the same manner, and, using the GC/MS peak area values of the test solution and the control solution, a deodorization rate is calculated according to the following Mathematical Formula 2.
Compound 1 prepared in Preparation Example 1 was introduced to a vial in a content as described in the following Table 2, and after introducing a super absorbent polymer (LG Chem., GS-301N) thereto so that a total content of the super absorbent polymer and Compound 1 becomes 80 mg, a malodorous solution (20 mL) was introduced thereto to prepare a test solution. As the malodorous solution, a solution in which diacetyl (242 ug/mL), isovaleraldehyde (49 ug/mL), dimethyl disulfide (30 ug/mL), dimethyl trisulfide (26 ug/mL) and p-cresol (2508 ug/mL) are mixed was 1/1000 diluted using an aqueous sodium chloride solution (0.9% by weight) and used. Volatile substances generated in the test solution was adsorbed using a solid-phase microextraction method (SPME), and through a GC/MS analysis, GC/MS peak areas of the adsorbed malodorous substances (diacetyl, isovaleraldehyde, dimethyl disulfide, dimethyl trisulfide and p-cresol) were each analyzed. For a control solution prepared in the same manner except that Compound 1 was not included, peak areas of the malodorous substances were analyzed in the same manner, and deodorization rates thereof were each calculated according to the following Mathematical Formula 2.
(Cs: GC/MS peak areas of malodorous substances test solution, C0: GC/MS peak areas of malodorous substances of control solution)

[2] = test system: Proteus mirabilis (ATCC 29906); test: Antibacterial property evaluation, bacterial growth inhibition (absorbance at 600 nm); assay type: cell-based; settings: 16 hours at 35° C.; for Absorbance: 600 nm
Procedure: (§1) After introducing 1 mg to 200 mg of the compound to a nutrient broth culture medium (25 ml) inoculated with bacteria 3000±300 CFU/ml, the result is incubated for 16 hours at 35° C. in a shaking incubator to prepare a test culture medium. A control culture medium is prepared in the same manner except that the compound is not introduced in the test culture medium. For the test culture medium and the control culture medium, absorbance at a wavelength of 600 nm is measured using a UV-Vis spectrophotometer, and using the measured absorbance value, a bacterial growth inhibition rate (%) is calculated according to the following Mathematical Formula 1.
(§2) To a nutrient broth culture medium (25 ml) inoculated with Proteus mirabilis (ATCC 29906) or E. coli (ATCC 25922) 3000±300 CFU/ml, Compound 1 prepared in Preparation Example 1 was introduced in a content as described in the following Table 1, and the result was incubated for 16 hours at 35° C. in a shaking incubator to prepare a test culture medium. As a control, a control culture medium was prepared in the same manner except that the compound was not introduced in the test culture medium. For the test culture medium and the control culture medium, absorbance at a wavelength of 600 nm was measured using a UV-Vis spectrophotometer. Using the measurement results, a bacterial growth inhibition rate (%) was calculated according to the following Mathematical Formula 1.
(§3) (As: absorbance of test culture medium, A0: absorbance of control culture medium)

E. coli (ATCC 25922) = test: as above; assay type: cell-based; settings: Escherichia coli, 16 hours at 35° C.; for Absorbance: 600 nm
Procedure: as §1, §2, §3

[3] = 1 phr of Compound 1 with super absorbent polymer
[4] = 2 phr of Compound 1 with super absorbent polymer
[5] = 5 phr of Compound 1 with super absorbent polymer
[6] = 8 phr of Compound 1 with super absorbent polymer
[7] = 10 phr of Compound 1 with super absorbent polymer
[8] = content 20 mg in 25 ml nutrient broth
[9] = content 50 mg in 25 ml nutrient broth
[10] = content 100 mg in 25 ml nutrient broth

## C=CC(=O)OCCC1CCCCN1C(=O)OC(C)CC (stereo not shown) [Compound 1]
[1]; [3]
  Deodorization rate (%) for Diacetyl: 79%
  Deodorization rate (%) for Dimethyl Disulfide: 65%
  Deodorization rate (%) for Dimethyl Trisulfide: 16%
  Deodorization rate (%) for Isovaleraldehyde: 87%
  Deodorization rate (%) for p-Cresol: 2%
[1]; [4]
  Deodorization rate (%) for Diacetyl: 86%
  Deodorization rate (%) for Dimethyl Disulfide: 76%
  Deodorization rate (%) for Dimethyl Trisulfide: 27%
  Deodorization rate (%) for Isovaleraldehyde: 92%
  Deodorization rate (%) for p-Cresol: 20%
[1]; [5]
  Deodorization rate (%) for Diacetyl: 91%
  Deodorization rate (%) for Dimethyl Disulfide: 84%
  Deodorization rate (%) for Dimethyl Trisulfide: 61%
  Deodorization rate (%) for Isovaleraldehyde: 94%
  Deodorization rate (%) for p-Cresol: 37%
[1]; [6]
  Deodorization rate (%) for Diacetyl: 92%
  Deodorization rate (%) for Dimethyl Disulfide: 88%
  Deodorization rate (%) for Dimethyl Trisulfide: 72%
  Deodorization rate (%) for Isovaleraldehyde: 95%
  Deodorization rate (%) for p-Cresol: 46%
[1]; [7]
  Deodorization rate (%) for Diacetyl: 93%
  Deodorization rate (%) for Dimethyl Disulfide: 88%
  Deodorization rate (%) for Dimethyl Trisulfide: 76%
  Deodorization rate (%) for Isovaleraldehyde: 95%
  Deodorization rate (%) for p-Cresol: 61%
[2]; [8]
  Bacterial Growth Inhibition Rate (%): 55.6%
  Absorbance: 0.059
[2]; [9]
  Bacterial Growth Inhibition Rate (%): 91.7%
  Absorbance: 0.011
[2]; [10]
  Bacterial Growth Inhibition Rate (%): 89.5%
  Absorbance: 0.014
E. coli (ATCC 25922); [8]
  Bacterial Growth Inhibition Rate (%): 62.9%
  Absorbance: 0.063
E. coli (ATCC 25922); [9]
  Bacterial Growth Inhibition Rate (%): 92.4%
  Absorbance: 0.013
E. coli (ATCC 25922); [10]
  Bacterial Growth Inhibition Rate (%): 88.8%
  Absorbance: 0.019
